Experimental data: US12064399B2, “Use of cannabinoids in the treatment of epilepsy” (Jazz Pharmaceuticals Research UK Limited, priority 2015, dated 2024)

Experiments:
seizures [1] = conditions: Consroe et al., 1977; cited from earlier work
total seizures = assay: Expanded access compassionate use program: 50% responders for total seizures, all subjects; type: in vivo, human; conditions: proportion of all subjects treated; 12 weeks of treatment
Description: The terms “50% responder” and “50% reduction in seizure” are both terms used in clinical studies. In the present application the terms define the percentage of subjects that experienced a greater than or equal to 50% reduction in the number of seizures during treatment with CBD in comparison to the number experienced during the baseline period before the CBD was administered.
Of 137 children and young adults with severe, childhood onset treatment-resistant epilepsy (TRE), fifty-one suffered from epilepsy that was characterised by focal seizures. These subjects were tested with a highly purified extract of cannabidiol (CBD) obtained from a Cannabis plant. All subjects presented with focal type seizures, often in addition to generalised seizures. The participants in the study were part of an expanded access compassionate use program for CBD.
All patients entered a baseline period of 4 weeks when parents/caregivers kept prospective seizure diaries, noting all countable seizure types.
The patients then received a highly purified CBD extract (greater than 98% CBD w/w) in sesame oil, of known and constant composition, at a dose of 5 mg/kg/day in addition to their baseline anti-epileptic drug (AED) regimen.

refractory epilepsy = conditions: Press et al.; parental reporting; cited from earlier work
seizures [2] = conditions: 200 mg day of pure CBD; twelve institutionalized adult patients; open label; cited from earlier work
[3] = test system: focal seizures leading to secondary generalisation; assay: Expanded access compassionate use program: 50% responders for focal seizures leading to secondary generalisation; type: in vivo, human; conditions: proportion of patients; 12 weeks of treatment
generalized epilepsy = conditions: of eight adult patients with generalized epilepsy; cited from earlier work
[4] = test system: myoclonic absence seizures; assay: Patients with greater than 50% reduction of myoclonic absence seizures under CBD; type: in vivo, human; conditions: treatment with CBD
seizures [5] = conditions: 200 mg/day of pure CBD; four adult patients; cited from earlier work
[6] = test system: focal seizures without impairment; assay: Expanded access compassionate use program: 50% responders for focal seizures without impairment; type: in vivo, human; conditions: proportion of patients; 12 weeks of treatment
seizures [7] = conditions: mice; after administration of pro-convulsant drugs or an electric current; cited from earlier work
[8] = Solubility of the drug substance in water; type: physicochemical
absence seizures = assay: Patients with greater than 50% reduction of absence seizures under CBD; type: in vivo, human; conditions: treatment with CBD

| Compound | effect on seizures (seizures [1]) | <50% reduction in seizures, Total seizures (n = 137) (total seizures) | responder rate by OCE type (refractory epilepsy) [%] | control of seizures (seizures [2]) | <50% reduction in seizures, Focal Seizures Leading to Secondary Generalised (n = 15) [3] [%] | >50% reduction in seizures, Focal Seizures Leading to Secondary Generalised (n = 15) [3] [%] | patients with marked reduction of seizures (generalized epilepsy) | proportion of patients with greater than 50% reduction of myoclonic absence seizures [4] [%] | patients who became seizure free (seizures [5]) | <50% reduction in seizures, Focal Seizures without Impairment (n = 6) [6] [%] | >50% reduction in seizures, Focal Seizures without Impairment (n = 6) [6] [%] | prevention of seizures (seizures [7]) | solubility in water [8] | proportion of patients with greater than 50% reduction of absence seizures (absence seizures) [%] |
| --- | --- | --- | --- | --- | --- | --- | --- | --- | --- | --- | --- | --- | --- | --- |
| CCCCCc1cc(O)c2c(c1)OC(C)(C)[C@@H]1CCC(C)=C[C@@H]21 [THC, Tetrahydrocannabinol] | pro-convulsant | – | – | – | – | – | – | – | – | – | – | – | – | – |
| C=C(C)[C@@H]1CCC(C)=C[C@H]1c1c(O)cc(CCCCC)cc1O [CBD, Cannabidiol] | – | 54% (n = 74) | 35 | ineffective | 53 | 47 | 4 | 75 | two of the four patients became seizure free | 50 | 50 | able to prevent seizures | insoluble | 64 |
